Assay results from US20090105283A1, “3-HYDROQUINAZOLIN-4-ONE DERIVATIVES FOR USE AS STEAROYL CoA DESATURASE INHIBITORS” (priority 2007, published 2009).

Each compound was assayed against T1, stearoyl-CoA desaturase (SCD) (Rattus norvegicus, UniProt P07308) (assay: SCD assay with rat liver microsomes ([3H]stearoyl CoA, adapted from Talamo and Bloch)). Conditions: Table 2 (Example 21, procedures of Example 20); rat liver microsomes, [3H]stearoyl CoA substrate.
T1 construct: The microsomes were quickly thawed and added to assay buffer so that a concentration of 0.4 mg/ml was achieved; from tissue
T1 sequence (P07308 1-358): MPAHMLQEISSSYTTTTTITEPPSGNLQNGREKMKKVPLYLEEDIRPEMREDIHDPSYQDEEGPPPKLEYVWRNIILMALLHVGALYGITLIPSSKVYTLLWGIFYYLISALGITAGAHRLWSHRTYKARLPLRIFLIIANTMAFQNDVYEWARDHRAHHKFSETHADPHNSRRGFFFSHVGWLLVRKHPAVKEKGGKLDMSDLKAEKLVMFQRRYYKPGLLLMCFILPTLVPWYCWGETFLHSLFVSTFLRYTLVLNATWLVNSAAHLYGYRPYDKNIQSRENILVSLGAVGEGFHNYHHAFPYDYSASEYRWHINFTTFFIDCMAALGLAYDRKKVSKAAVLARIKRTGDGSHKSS
Assay type: biochemical
Summary of the method: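 Liver microsomes came from diet-induced male Sprague Dawley rats and were used at 0.2 mg/ml final. Assay buffer was Tris pH 7.2 with NADH, ATP, CoA, MgCl2 and 0.1% BSA. Compounds were preincubated 30 min, then reacted 45 min at room temperature with [3H]stearoyl-CoA; after TCA stop and Bio-Bead cleanup, supernatant radioactivity was counted by scintillation.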
An IC50 of 4900 nM was found for O=C(CO)Nc1ccc2c(=O)n(CCOc3ccccc3Cl)cnc2c1 [compound 63, N-(3-(2-(2-chlorophenoxy)ethyl)-4-oxo-3,4-dihydroquinazolin-7-yl)-2-hydroxyacetamide] in this work.
An IC50 of 1300 nM was found for O=C(CO)Nc1ccc2ncn(CCCCCOc3cc(Cl)ccc3Cl)c(=O)c2c1 [compound 64, N-(3-(5-(2,5-dichlorophenoxy)pentyl)-4-oxo-3,4-dihydroquinazolin-6-yl)-2-hydroxyacetamide] in this work.
An IC50 of 640 nM was found for O=C(CO)Nc1ccc2ncn(CCCOc3cccc(Cl)c3Cl)c(=O)c2c1 [compound 65, N-(3-(3-(2,3-dichlorophenoxy)propyl)-4-oxo-3,4-dihydroquinazolin-6-yl)-2-hydroxyacetamide] in this work.
An IC50 of 11000 nM was found for O=C(CO)Nc1ccc2ncn(CCCOc3cc(C(F)(F)F)ccc3Cl)c(=O)c2c1 [compound 66, N-(3-(3-(2-chloro-5-(trifluoromethyl)phenoxy)propyl)-4-oxo-3,4-dihydroquinazolin-6-yl)-2-hydroxyacetamide] in this work.
An IC50 of 21000 nM was found for O=C(CO)Nc1ccc2ncn(CCNC(=O)c3cc(Cl)ccc3Cl)c(=O)c2c1 [compound 67, 2,5-dichloro-N-(2-(6-(2-hydroxyacetamido)-4-oxoquinazolin-3(4H)-yl)ethyl)benzamide] in this work.
An IC50 of 23000 nM was found for O=C(CO)Nc1ccc2ncn(CCCOc3ccccc3)c(=O)c2c1 [compound 68, 2-hydroxy-N-(4-oxo-3-(3-phenoxypropyl)-3,4-dihydroquinazolin-6-yl)acetamide] in this work.
An IC50 of 5200 nM was found for O=C(CO)Nc1ccc2ncn(CCNC(=O)c3ccccc3C(F)(F)F)c(=O)c2c1 [compound 69, N-(2-(6-(2-hydroxyacetamido)-4-oxoquinazolin-3(4H)-yl)ethyl)-2-(trifluoromethyl)benzamide] in this work.
An IC50 of 3100 nM was found for O=C(CO)Nc1ccc2ncn(CCCOc3ccc(Cl)cc3)c(=O)c2c1 [compound 70, N-(3-(3-(4-chlorophenoxy)propyl)-4-oxo-3,4-dihydroquinazolin-6-yl)-2-hydroxyacetamide] in this work.
An IC50 of 15000 nM was found for O=C(CO)Nc1ccc2ncn(CCNS(=O)(=O)c3cc(Cl)ccc3Cl)c(=O)c2c1 [compound 71, N-(3-(2-(2,5-dichlorophenylsulfonamido)ethyl)-4-oxo-3,4-dihydroquinazolin-6-yl)-2-hydroxyacetamide] in this work.
An IC50 of 21000 nM was found for O=C(CO)Nc1ccc2ncn(CCCNS(=O)(=O)c3cc(Cl)ccc3Cl)c(=O)c2c1 [compound 72, N-(3-(3-(2,5-dichlorophenylsulfonamido)propyl)-4-oxo-3,4-dihydroquinazolin-6-yl)-2-hydroxyacetamide] in this work.
An IC50 of 14000 nM was found for O=C(CO)Nc1ccc2ncn(CCCNS(=O)(=O)c3ccccc3C(F)(F)F)c(=O)c2c1 [compound 73, 2-hydroxy-N-(4-oxo-3-(3-(2-(trifluoromethyl)phenylsulfonamido)propyl)-3,4-dihydroquinazolin-6-yl)acetamide] in this work.
An IC50 of 17000 nM was found for O=C(CO)Nc1ccc2ncn(CCOc3ccc(Cl)cc3)c(=O)c2c1 [compound 74, N-(3-(2-(4-chlorophenoxy)ethyl)-4-oxo-3,4-dihydroquinazolin-6-yl)-2-hydroxyacetamide] in this work.
An IC50 of 1500 nM was found for O=C(CO)Nc1ccc2ncn(CCOc3cccc(Cl)c3)c(=O)c2c1 [compound 75, N-(3-(2-(3-chlorophenoxy)ethyl)-4-oxo-3,4-dihydroquinazolin-6-yl)-2-hydroxyacetamide] in this work.
An IC50 of 4000 nM was found for Cc1ccccc1OCC(O)Cn1cnc2ccc(NC(=O)CO)cc2c1=O (centres unmarked) [compound 76, 2-hydroxy-N-(3-(2-hydroxy-3-(o-tolyloxy)propyl)-4-oxo-3,4-dihydroquinazolin-6-yl)acetamide] in this work.
An IC50 of 360 nM was found for O=C(Nc1cnc2ncn(Cc3ccc(Cl)c(Cl)c3)c(=O)c2c1)OCc1ccccc1 [compound 77, benzyl 3-(3,4-dichlorobenzyl)-4-oxo-3,4-dihydropyrido[2,3-d]pyrimidin-6-ylcarbamate] in this work.
An IC50 of 180 nM was found for O=C(CO)Nc1cnc2ncn(Cc3ccc(Cl)c(Cl)c3)c(=O)c2c1 [compound 78, N-(3-(3,4-dichlorobenzyl)-4-oxo-3,4-dihydropyrido[2,3-d]pyrimidin-6-yl)-2-hydroxyacetamide] in this work.
An IC50 of 1700 nM was found for O=C(CO)Nc1cnc2ncn(Cc3ccc(Cl)cc3)c(=O)c2c1 [compound 79, N-(3-(4-chlorobenzyl)-4-oxo-3,4-dihydropyrido[2,3-d]pyrimidin-6-yl)-2-hydroxyacetamide] in this work.
An IC50 of 78 nM was found for O=C(Nc1cnc2ncn(Cc3ccc(Cl)cc3)c(=O)c2c1)OCc1ccccc1 [compound 80, benzyl 3-(4-chlorobenzyl)-4-oxo-3,4-dihydropyrido[2,3-d]pyrimidin-6-ylcarbamate] in this work.
An IC50 of 2700 nM was found for O=C(NCCO)c1ccc2ncn(Cc3ccc(Cl)c(Cl)c3)c(=O)c2c1 [compound 81, 3-(3,4-dichlorobenzyl)-N-(2-hydroxyethyl)-4-oxo-3,4-dihydroquinazoline-6-carboxamide] in this work.
An IC50 of 1500 nM was found for COCCNC(=O)c1ccc2ncn(Cc3ccc(Cl)c(Cl)c3)c(=O)c2c1 [compound 82, 3-(3,4-dichlorobenzyl)-N-(2-methoxyethyl)-4-oxo-3,4-dihydroquinazoline-6-carboxamide] in this work.
An IC50 of 580 nM was found for COCCNC(=O)c1ccc2c(=O)n(Cc3ccc(Cl)c(Cl)c3)cnc2c1 [compound 83, 3-(3,4-dichlorobenzyl)-N-(2-methoxyethyl)-4-oxo-3,4-dihydroquinazoline-7-carboxamide] in this work.
An IC50 of 630 nM was found for O=C(NCCO)c1ccc2c(=O)n(Cc3ccc(Cl)c(Cl)c3)cnc2c1 [compound 84, 3-(3,4-dichlorobenzyl)-N-(2-hydroxyethyl)-4-oxo-3,4-dihydroquinazoline-7-carboxamide] in this work.
An IC50 of 950 nM was found for O=C(NCc1ccccc1)c1ccc2c(=O)n(Cc3ccc(Cl)c(Cl)c3)cnc2c1 [compound 85, N-benzyl-3-(3,4-dichlorobenzyl)-4-oxo-3,4-dihydroquinazoline-7-carboxamide] in this work.
An IC50 of 7700 nM was found for O=C(NCCCO)c1ccc2c(=O)n(Cc3ccc(Cl)c(Cl)c3)cnc2c1 [compound 86, 3-(3,4-dichlorobenzyl)-N-(3-hydroxypropyl)-4-oxo-3,4-dihydroquinazoline-7-carboxamide] in this work.
An IC50 of 1700 nM was found for O=C(NCCOc1ccccc1)c1ccc2c(=O)n(Cc3ccc(Cl)c(Cl)c3)cnc2c1 [compound 87, 3-(3,4-dichlorobenzyl)-4-oxo-N-(2-phenoxyethyl)-3,4-dihydroquinazoline-7-carboxamide] in this work.
An IC50 of 1500 nM was found for CNC(=O)c1ccc2c(=O)n(Cc3ccc(Cl)c(Cl)c3)cnc2c1 [compound 88, 3-(3,4-dichlorobenzyl)-N-methyl-4-oxo-3,4-dihydroquinazoline-7-carboxamide] in this work.
An IC50 of 7500 nM was found for CNC(=O)c1ccc2c(=O)n(Cc3ccc(Cl)cc3)cnc2c1 [compound 89, 3-(4-chlorobenzyl)-N-methyl-4-oxo-3,4-dihydroquinazoline-7-carboxamide] in this work.
An IC50 of 890 nM was found for O=C(NCc1ccc(F)cc1)c1ccc2c(=O)n(Cc3ccc(Cl)cc3)cnc2c1 [compound 90, 3-(4-chlorobenzyl)-N-(4-fluorobenzyl)-4-oxo-3,4-dihydroquinazoline-7-carboxamide] in this work.
An IC50 of 1700 nM was found for O=C(NCc1ccc(Cl)c(Cl)c1)c1ccc2c(=O)n(Cc3ccc(Cl)c(Cl)c3)cnc2c1 [compound 91, N,3-bis(3,4-dichlorobenzyl)-4-oxo-3,4-dihydroquinazoline-7-carboxamide] in this work.
